Reference: PubChem BioAssay (NCI)
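Cells were grown in 96-well plates and exposed to each compound for 48 hours at five concentrations; endpoints were interpolated linearly between bracketing concentrations, or set to the highest concentration if not reached. Here, GI50 denotes the concentration required for 50% inhibition of growth. TGI is the concentration that stops growth completely.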

Legend:
Test in all cases: NCI anticancer screen, dose series, 48 h
[1] = test system: OVCAR-4 ovarian
[2] = test system: SN12C renal
[3] = test system: EKVX NSCLC
[4] = test system: PC-3 prostate
[5] = test system: CCRF-CEM leukemia
[6] = test system: UO-31 renal
[7] = test system: RPMI-8226 leukemia
[8] = test system: LOX IMVI melanoma
[9] = test system: HS 578T breast
[10] = test system: MCF7 breast

SMILES: C/C(=N\NC(=S)N1CCCCC1)c1ccccn1
- GI50 [1]: < 0.01 µM
- TGI [1]: 4.57 µM
- GI50 [2]: 0.29 µM
- TGI [2]: 14.3 µM
- GI50 [3]: < 0.0145 µM
- TGI [3]: 3.99 µM
- GI50 [4]: < 0.01 µM
- TGI [4]: 12.6 µM
- GI50 [5]: < 0.0143 µM
- TGI [5]: > 25.1 µM
- GI50 [6]: < 0.0123 µM
- TGI [6]: 2.29 µM
- GI50 [7]: 0.016 µM
- TGI [7]: 0.849 µM
- GI50 [8]: < 0.0106 µM
- TGI [8]: 9.03 µM
- GI50 [9]: 0.142 µM
- GI50 [10]: < 0.01 µM
- TGI [10]: 6.13 µM

SMILES: O=Nc1ccc(O)c(=O)cc1
- GI50 [1]: 1.71 µM
- TGI [1]: 4.83 µM
- GI50 [2]: 2.95 µM
- TGI [2]: 12.4 µM
- GI50 [3]: 6.93 µM
- TGI [3]: 23.4 µM
- GI50 [4]: 3.77 µM
- TGI [4]: 16.2 µM
- GI50 [5]: 0.264 µM
- TGI [5]: 1.19 µM
- GI50 [6]: 1.15 µM
- TGI [6]: 2.69 µM
- GI50 [7]: 1.05 µM
- TGI [7]: 3.97 µM
- GI50 [8]: 2.16 µM
- TGI [8]: 7.67 µM
- GI50 [9]: 5.57 µM
- TGI [9]: > 44.4 µM
- GI50 [10]: 2.73 µM
- TGI [10]: 14 µM

SMILES: COc1ccc2c(c1OC)C[C@@H]1c3c(cc4c(c3-2)OCO4)CCN1C
- TGI [1]: > 100 µM
- TGI [2]: > 100 µM
- TGI [3]: > 100 µM
- TGI [4]: 89.2 µM
- TGI [5]: 51.6 µM
- TGI [6]: 45.4 µM
- TGI [7]: 42.9 µM
- TGI [8]: 29.1 µM
- TGI [9]: > 100 µM
- TGI [10]: > 100 µM

SMILES: COc1cc(Nc2nc3cc(N)cc(N)c3nc2-c2ccccc2)cc(OC)c1OC
- GI50 [1]: 0.0313 µM
- TGI [1]: 0.892 µM
- GI50 [2]: 20.4 µM
- TGI [2]: 83.7 µM
- GI50 [3]: 17.6 µM
- TGI [3]: 47.4 µM
- GI50 [4]: 14.2 µM
- TGI [4]: 59.3 µM
- GI50 [5]: 4.4 µM
- TGI [5]: 42 µM
- GI50 [6]: 15.1 µM
- TGI [6]: 90.3 µM
- GI50 [7]: 12.4 µM
- TGI [7]: 32.4 µM
- GI50 [8]: 18.5 µM
- TGI [8]: 49 µM
- GI50 [9]: 15 µM
- TGI [9]: 78.1 µM
- GI50 [10]: 25.5 µM
- TGI [10]: 94.5 µM

SMILES: O=C(CC(Cl)=C(Cl)Cl)Nc1ccccc1
- GI50 [1]: > 100 µM
- TGI [1]: > 100 µM
- GI50 [2]: > 100 µM
- TGI [2]: > 100 µM
- GI50 [3]: > 100 µM
- TGI [3]: > 100 µM
- GI50 [4]: > 100 µM
- TGI [4]: > 100 µM
- GI50 [5]: > 100 µM
- TGI [5]: > 100 µM
- GI50 [6]: > 100 µM
- TGI [6]: > 100 µM
- GI50 [7]: > 100 µM
- TGI [7]: > 100 µM
- GI50 [8]: > 100 µM
- TGI [8]: > 100 µM
- GI50 [9]: > 100 µM
- TGI [9]: > 100 µM
- GI50 [10]: > 100 µM
- TGI [10]: > 100 µM

SMILES: CCN1C(=S)N(c2ccccc2)C2NC(=S)N(/N=C/C=C/c3ccccc3OC)C21 (centres undefined)
- GI50 [1]: 0.839 µM
- TGI [1]: > 100 µM
- GI50 [2]: 0.541 µM
- TGI [2]: > 100 µM
- GI50 [3]: 0.505 µM
- TGI [3]: > 100 µM
- GI50 [4]: 0.398 µM
- TGI [4]: > 100 µM
- GI50 [5]: 0.362 µM
- TGI [5]: > 100 µM
- GI50 [6]: 0.675 µM
- TGI [6]: > 100 µM
- GI50 [7]: 0.377 µM
- TGI [7]: > 24.8 µM
- GI50 [8]: 0.482 µM
- TGI [8]: > 100 µM
- GI50 [9]: 0.359 µM
- TGI [9]: > 100 µM
- GI50 [10]: 0.331 µM
- TGI [10]: > 100 µM

SMILES: O=c1[nH]c2ccccc2c2ccccc12
- GI50 [1]: 60.7 µM
- TGI [1]: > 100 µM
- GI50 [2]: > 100 µM
- TGI [2]: > 100 µM
- GI50 [3]: 92.9 µM
- TGI [3]: > 100 µM
- GI50 [4]: > 100 µM
- TGI [4]: > 100 µM
- GI50 [5]: > 100 µM
- TGI [5]: > 100 µM
- GI50 [6]: 70.9 µM
- TGI [6]: > 100 µM
- GI50 [7]: > 100 µM
- TGI [7]: > 100 µM
- GI50 [8]: > 100 µM
- TGI [8]: > 100 µM
- GI50 [9]: > 100 µM
- TGI [9]: > 100 µM
- GI50 [10]: > 100 µM
- TGI [10]: > 100 µM

SMILES: COc1ccc(/C=C(/C#N)C(N)=O)c(OC)c1
- TGI [1]: > 100 µM
- TGI [2]: > 100 µM
- TGI [3]: > 100 µM
- TGI [4]: > 100 µM
- TGI [5]: > 100 µM
- TGI [6]: 26.8 µM
- TGI [7]: > 100 µM
- TGI [8]: > 100 µM
- TGI [9]: > 100 µM
- TGI [10]: > 100 µM
